Measured values published in paper PMC9849758, “Chemically diverse activity-based probes with unexpected inhibitory mechanisms targeting trypsin-like serine proteases” (Frontiers in Chemistry, 2023).
Counter-ions that a name gives are not always drawn. Like-named read-outs stand apart in the source and are kept apart here.

Key:
Experiment in all cases: IC50 determination, spectrophotometric protease assay
Type in all cases: biochemical
[1] = molecular target: T1, Cathepsin G (cathepsin G human neutrophil) (Homo sapiens, UniProt P08311); settings: for CatG IC50: alkyne probes
T1 construct: Cathepsin G (cathepsin G human neutrophil, Sigma-Aldrich); purchased Sigma-Aldrich; host or cells: human neutrophil
T1 sequence (P08311 21-255): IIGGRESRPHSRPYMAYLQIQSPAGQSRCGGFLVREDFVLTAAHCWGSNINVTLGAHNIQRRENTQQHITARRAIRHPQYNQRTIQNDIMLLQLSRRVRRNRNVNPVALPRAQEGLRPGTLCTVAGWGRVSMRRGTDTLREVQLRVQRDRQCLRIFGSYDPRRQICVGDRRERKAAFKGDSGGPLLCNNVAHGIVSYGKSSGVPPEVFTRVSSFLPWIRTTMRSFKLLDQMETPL
Procedure: (§1) The IC50 values were determined using a spectrophotometric assay. All the experiments were conducted in duplicate. The readout consisted of evaluating the protease-mediated release of the chromophore para-nitroaniline (pNA) or fluorophore 7-amino-4-methyl coumarin (AMC) moieties from the respective substrates. Enzymatic activity was measured for 30 min at 37°C. All compounds were initially screened at three concentrations (10, 1, and .1 μM) to estimate the range of the IC50 value. Those which were able to reduce protease activity by at least 50% at a concentration of 10 μM were submitted to an exact IC50 determination. […] A third independent experiment was performed when the standard deviation of the two independent experiments was higher than […]. IC50 values were obtained by fitting the data with the four-parameter logistics equation using GraphPad Prism 9.
(§2) The conditions for each protease are described as follows, the concentration of substrate used was at the corresponding Km.

[2] = molecular target: T2, uPA (recombinant urokinase plasminogen activator) (Homo sapiens, UniProt P00749)
T2 construct: purchased HYPHEN BioMed
Procedure: as §1, §2

[3] = molecular target: T3, β-tryptase (recombinant tryptase β-2) (Homo sapiens, UniProt P20231)
T3 construct: purchased EnzoLife Sciences
Procedure: as §1, §2

[4] = molecular target: T4, Neutrophil Elastase (recombinant neutrophil elastase) (Homo sapiens, UniProt P08246); settings: for NE IC50: alkyne probes
T4 construct: purchased Enzo LifeSciences
T4 sequence (P08246 30-267): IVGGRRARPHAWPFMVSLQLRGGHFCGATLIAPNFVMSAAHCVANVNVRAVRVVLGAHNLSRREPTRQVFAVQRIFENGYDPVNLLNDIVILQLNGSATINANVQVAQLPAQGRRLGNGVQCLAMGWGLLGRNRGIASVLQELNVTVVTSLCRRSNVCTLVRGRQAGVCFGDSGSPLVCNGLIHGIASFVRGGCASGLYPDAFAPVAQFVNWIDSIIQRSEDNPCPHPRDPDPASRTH
Procedure: as §1, §2

[5] = molecular target: T5, TLCK-treated pancreatic bovine chymotrypsin (Bos taurus, UniProt P00766); settings: for ChTryp IC50: alkyne probes
T5 construct: TLCK-treated pancreatic bovine chymotrypsin (Sigma-Aldrich); purchased Sigma-Aldrich; host or cells: bovine pancreas
Procedure: as §1, §2

[6] = molecular target: T6, Thrombin (recombinant thrombin) (Homo sapiens, UniProt P00734)
T6 construct: purchased R&D
Procedure: as §1, §2

[7] = molecular target: T7, Trypsin-3 (recombinant trypsin-3) (Homo sapiens, UniProt P35030); settings: for Trypsin-3 IC50: alkyne probes
T7 construct: purchased R&D
T7 sequence (P35030 1-304): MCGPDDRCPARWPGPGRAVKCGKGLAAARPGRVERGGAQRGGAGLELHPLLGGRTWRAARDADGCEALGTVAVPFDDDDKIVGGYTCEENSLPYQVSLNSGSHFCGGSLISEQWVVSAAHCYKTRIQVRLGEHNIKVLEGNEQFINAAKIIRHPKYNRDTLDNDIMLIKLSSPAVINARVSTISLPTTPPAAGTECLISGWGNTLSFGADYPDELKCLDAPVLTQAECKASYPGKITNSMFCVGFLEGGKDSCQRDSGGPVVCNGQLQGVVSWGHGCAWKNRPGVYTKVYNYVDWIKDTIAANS
Procedure: as §1, §2

[8] = read-out: CatG IC50, desthiobiotin probes, 15 min preincubation at 37°C, mean ± SD
[9] = read-out: NE IC50, desthiobiotin probes, 15 min preincubation at 37°C, mean ± SD
[10] = read-out: ChTryp IC50, desthiobiotin probes, 15 min preincubation at 37°C, mean ± SD
[11] = read-out: Thrombin IC50, desthiobiotin probes, 15 min preincubation at 37°C, mean ± SD
[12] = read-out: Trypsin-3 IC50, desthiobiotin probes, 15 min preincubation at 37°C, mean ± SD
[13] = read-out: uPA IC50, desthiobiotin probes, 15 min preincubation at 37°C, mean ± SD
[14] = read-out: β-tryptase IC50, desthiobiotin probes, 15 min preincubation at 37°C, mean ± SD
[15] = 15 min preincubation at 37°C, mean ± SD
[16] = alkyne probes, 15 min preincubation at 37°C, mean ± SD

T3 sequence (P20231 31-275): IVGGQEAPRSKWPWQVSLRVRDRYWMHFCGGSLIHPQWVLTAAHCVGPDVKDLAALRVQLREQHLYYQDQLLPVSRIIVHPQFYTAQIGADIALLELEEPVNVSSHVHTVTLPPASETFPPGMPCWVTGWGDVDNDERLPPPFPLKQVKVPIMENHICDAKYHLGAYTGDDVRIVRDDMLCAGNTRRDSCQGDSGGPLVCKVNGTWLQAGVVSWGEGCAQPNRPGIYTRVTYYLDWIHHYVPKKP

SMILES	IC50 [1] [µM]	IC50 [2] [µM]	IC50 [3] [µM]	IC50 [4] [µM]	IC50 [5] [µM]	IC50 [6] [µM]	IC50 [7] [µM]	also measured
C#CCCCOC(=O)NC(c1ccc(N)cc1)P(=O)(Oc1ccc(NC(C)=O)cc1)Oc1ccc(NC(C)=O)cc1 (stereo not shown) [20b]	> 10	> 10	> 10					
CC(=O)Nc1ccc(OP(=O)(Oc2ccc(NC(C)=O)cc2)C(CCCCN)NC(=O)OCCCc2cn(CCOCCOCCOCCNC(=O)CCCCC[C@H]3NC(=O)N[C@H]3C)nn2)cc1 (stereo partly drawn) [49b, 3-(1-(18-((4R,5S)-5-methyl-2-oxoimidazolidin-4-yl)-13-oxo-3,6,9-trioxa-12-azaoctadecyl)-1H-1,2,3-triazol-4-yl)propyl (5-amino-1-(bis(4-acetamidophenoxy)phosphoryl)pentyl)carbamate trifluoroacetate salt]								IC50 [1, 8]: 4.47 ± 0.51 µM; IC50 [4, 9]: > 10 µM; IC50 [5, 10]: > 10 µM; IC50 [6, 11]: 1.18 ± 0.04 µM; IC50 [7, 12]: 0.09 ± 0.005 µM; IC50 [2, 13]: 6.75 ± 0.52 µM; IC50 [3, 14]: 1.11 ± 0.05 µM
C#CCCCOC(=O)NC(C1CCNCC1)P(=O)(Oc1ccccc1)Oc1ccccc1 (stereo not shown) [23b]	> 10	> 10	> 10	> 10	> 10	> 10	> 10	
C[C@@H]1NC(=O)N[C@@H]1CCCCCC(=O)NCCOCCOCCOCCn1cc(CCCOC(=O)NC(Cc2ccccc2)P(=O)(Oc2ccccc2)Oc2ccccc2)nn1 (stereo partly shown) [compound 42]	3.23 ± 0.29	> 10	> 10	> 10	2.07 ± 0.85	> 10	> 10	
C#CCCCOC(=O)NC(CCCCN)P(=O)(Oc1ccccc1)Oc1ccccc1.O=C(O)C(F)(F)F (stereo not shown) [29b]	> 10	5.27 ± 0.15	3.96 ± 0.5	> 10	5.87 ± 3.39	7.36 ± 0.25	0.07 ± 0.02	Trypsin-3 IC50 [7, 15]: nanomolar inhibition
CC(C)C(NC(=O)OCCCc1cn(CCOCCOCCOCCNC(=O)CCCCC[C@H]2NC(=O)N[C@H]2C)nn1)P(=O)(Oc1ccccc1)Oc1ccccc1 (stereo partly shown) [compound 44]	> 10	> 10	> 10	4.7 ± 0.2	> 10	> 10	> 10	
C#CCCCOC(=O)NC(Cc1ccc(CNC(=N)N)cc1)P(=O)(Oc1ccccc1)Oc1ccccc1 (stereo not shown) [40b]	6.16 ± 0.48	> 10	> 10	> 10	> 10	> 10	> 10	
C[C@@H]1NC(=O)N[C@@H]1CCCCCC(=O)NCCOCCOCCOCCn1cc(CCCOC(=O)NC(CCCCN)P(=O)(Oc2ccccc2)Oc2ccccc2)nn1 (stereo partly shown) [47b]								IC50 [1, 8]: > 10 µM; IC50 [4, 9]: > 10 µM; IC50 [5, 10]: > 10 µM; IC50 [6, 11]: 3.55 ± 0.17 µM; IC50 [7, 12]: 0.52 ± 0.24 µM; IC50 [2, 13]: 4.62 ± 0.17 µM; IC50 [3, 14]: 2.49 ± 0.19 µM
C#CCCCOC(=O)NC(Cc1ccc(N)cc1)P(=O)(Oc1ccc(Cl)cc1)Oc1ccc(Cl)cc1 (stereo not shown) [18b]	0.36 ± 0.01	6.38 ± 0.52	> 10	> 10	0.19 ± 0.14	7.88 ± 0.61	1.72 ± 0.19	CatG IC50 [1, 15]: submicromolar; ChTryp IC50 [5, 15]: submicromolar
C#CCCCOC(=O)NC(CCCN)P(=O)(Oc1ccccc1)Oc1ccccc1.O=C(O)C(F)(F)F (stereo not shown) [14b]	> 10	> 10	> 10	> 10	> 10	> 10	> 10	CatG IC50 [1, 15]: inactive; NE IC50 [4, 15]: inactive; ChTryp IC50 [5, 15]: inactive; Thrombin IC50 [6, 16]: inactive; Trypsin-3 IC50 [7, 15]: inactive; uPA IC50 [2, 16]: inactive; β-tryptase IC50 [3, 16]: inactive
C#CCCCOC(=O)NC(Cc1ccc(N)cc1)P(=O)(Oc1ccc(NC(C)=O)cc1)Oc1ccc(NC(C)=O)cc1 (stereo not shown) [17b]	0.37 ± 0.008	> 10	> 10	> 10	0.49 ± 0.28	2.97 ± 0.07	3.71 ± 0.71	CatG IC50 [1, 15]: submicromolar; ChTryp IC50 [5, 15]: submicromolar
C#CCCCOC(=O)NC(Cc1ccc(N)cc1)P(=O)(Oc1ccccc1)Oc1ccccc1 (stereo not shown) [16b]	3.74 ± 0.27	> 10	> 10	> 10	2.67 ± 0.57	> 10	6.85 ± 0.8	
C#CCCCOC(=O)NC(c1ccc(N)cc1)P(=O)(Oc1ccccc1)Oc1ccccc1 (stereo not shown) [19b]	> 10	> 10	> 10	> 10	8.52 ± 1.81	6.59 ± 3.9	9.06 ± 1.1	
O=C(CCCCC1SCC2NC(=O)NC21)NCCOCCOCCOCCn1cc(CCCOC(=O)NC(Cc2ccccc2)P(=O)(Oc2ccccc2)Oc2ccccc2)nn1 (stereo not shown) [compound 43]								IC50 ([1]; read-out: CatG IC50, biotin probes, 15 min preincubation at 37 °C, mean ± SD): 2.77 µM; IC50 ([4]; read-out: NE IC50, biotin probes, 15 min preincubation at 37 °C, mean ± SD): > 10 µM; IC50 ([5]; read-out: ChTryp IC50, biotin probes, 15 min preincubation at 37 °C, mean ± SD): 2.64 µM; IC50 ([6]; read-out: Thrombin IC50, biotin probes, 15 min preincubation at 37 °C, mean ± SD): > 10 µM; IC50 ([7]; read-out: Trypsin-3 IC50, biotin probes, 15 min preincubation at 37 °C, mean ± SD): > 10 µM; IC50 ([2]; read-out: uPA IC50, biotin probes, 15 min preincubation at 37 °C, mean ± SD): > 10 µM; IC50 ([3]; read-out: β-tryptase IC50, biotin probes, 15 min preincubation at 37 °C, mean ± SD): > 10 µM
C#CCCCOC(=O)NC(Cc1ccc(CN)cc1)P(=O)(Oc1ccccc1)Oc1ccccc1 (stereo not shown) [22b]	5.26 ± 0.68	2.3 ± 0.1	> 10	> 10	> 10	> 10	3.82 ± 0.19	
C#CCCCOC(=O)NC(Cc1ccccc1)P(=O)(Oc1ccccc1)Oc1ccccc1 (stereo not shown) [compound 12]	> 10	> 10	> 10	> 10	1.54 ± 1.34	> 10	> 10	
C#CCCCOC(=O)NC(C(C)C)P(=O)(Oc1ccccc1)Oc1ccccc1 (stereo not shown) [compound 13]	> 10	> 10	> 10	> 10	> 10	> 10	> 10	NE IC50 [4, 15]: not potent
C#CCCCOC(=O)NC(CCCCN)P(=O)(Oc1ccc(NC(=O)OC)cc1)Oc1ccc(NC(=O)OC)cc1 (stereo not shown) [30b]	0.56 ± 0.002	2.44 ± 0.35	0.68 ± 0.05	> 10	> 10	1.18 ± 0.07	0.006 ± 0.0006	Trypsin-3 IC50 [7, 15]: nanomolar inhibition
C#CCCCOC(=O)NC(c1ccc(N)cc1)P(=O)(Oc1ccc(Cl)cc1)Oc1ccc(Cl)cc1 (stereo not shown) [21b]	> 10	> 10	> 10					
